# Measurements from US8039514B2, “Sulfonamide compounds and use thereof” (Asahi Kasei Pharma Corporation, priority 2008, dated 2011).
# Target: T1, human calcium-sensing receptor (CaSR) (Homo sapiens, UniProt P41180)
# T1 construct: expressed in transfected cells
# T1 sequence (P41180 20-1078): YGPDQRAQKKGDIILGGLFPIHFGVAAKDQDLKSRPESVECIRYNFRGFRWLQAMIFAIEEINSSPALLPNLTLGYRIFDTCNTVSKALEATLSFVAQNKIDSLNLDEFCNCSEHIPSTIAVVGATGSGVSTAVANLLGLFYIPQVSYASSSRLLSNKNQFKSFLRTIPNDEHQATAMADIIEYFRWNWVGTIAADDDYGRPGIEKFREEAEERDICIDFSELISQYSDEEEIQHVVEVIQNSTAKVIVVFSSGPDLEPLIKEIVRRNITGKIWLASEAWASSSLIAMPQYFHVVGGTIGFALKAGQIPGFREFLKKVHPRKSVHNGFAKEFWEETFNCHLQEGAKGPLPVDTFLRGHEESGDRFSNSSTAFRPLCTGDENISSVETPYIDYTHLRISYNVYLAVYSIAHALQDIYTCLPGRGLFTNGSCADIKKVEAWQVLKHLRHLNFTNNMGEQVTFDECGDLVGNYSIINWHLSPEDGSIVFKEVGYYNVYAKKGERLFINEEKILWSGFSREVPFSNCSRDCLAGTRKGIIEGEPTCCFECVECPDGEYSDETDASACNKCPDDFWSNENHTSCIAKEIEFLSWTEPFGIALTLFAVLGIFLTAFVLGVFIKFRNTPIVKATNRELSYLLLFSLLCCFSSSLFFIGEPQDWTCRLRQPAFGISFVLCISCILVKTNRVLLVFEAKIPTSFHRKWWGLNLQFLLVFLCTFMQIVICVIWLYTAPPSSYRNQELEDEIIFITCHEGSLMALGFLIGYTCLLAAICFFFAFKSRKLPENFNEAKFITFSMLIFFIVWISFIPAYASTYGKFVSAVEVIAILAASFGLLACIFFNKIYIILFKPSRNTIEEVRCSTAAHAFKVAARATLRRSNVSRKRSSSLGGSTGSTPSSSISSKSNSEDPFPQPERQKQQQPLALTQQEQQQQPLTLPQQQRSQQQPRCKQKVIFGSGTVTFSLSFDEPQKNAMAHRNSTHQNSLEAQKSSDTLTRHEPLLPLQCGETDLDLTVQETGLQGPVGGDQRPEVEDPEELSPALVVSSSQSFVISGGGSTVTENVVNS
# Assay: intracellular Ca assay, CaSR antagonist activity in HEK293/hCaSR cells
# Format: cell-based
# Details: Fura2-AM, inhibition of response to calcium chloride ligand solution, read-out: IC50 values according to the intracellular Ca assay (CaSR antagonist activity)
# Procedure: HEK293 cells stably expressing human calcium-sensing receptor (CaSR) (termed HEK293/hCaSR cells) were used. HEK293/hCaSR cells were cultured in a culture medium [DMEM medium containing 0.5 mg/mL Geneticin, 50 Unit/mL penicillin, 50 μg/mL streptomycin and 10% fetal bovine serum (FBS), all manufactured by Invitrogen] to semiconfluent in an incubator at 37° C. under 5% carbon dioxide atmosphere.
# Cultured cells were washed with phosphate buffered saline (PBS(−), manufactured by Dainippon Sumitomo Pharmaceutical Company) which had been prewarmed to 37° C., added with PBS(−) containing 10 mM ethylenediamine tetraacetic acid (EDTA), and then incubated in an incubator at 37° C. for 10 minutes. After adding the culture medium to separate the cells, cell suspension was transferred to a centrifuge tube. Cells were collected by centrifuge at 1,500 rpm for 3 minutes, and resuspended in Ca assay buffer [20 mM HEPES buffer (pH 7.4), 115 mM sodium chloride, 5.4 mM potassium chloride, 0.8 mM magnesium chloride, 0.8 mM calcium chloride, 13.8 mM D(+)-glucose (all manufactured by Wako Pure Chemicals) and 0.1% bovine serum albumin (manufactured by SIGMA)] containing 0.2% Pluronic F-127 (manufactured by Molecular Probes) and […] Fura2-AM (manufactured by DOJINDO LABORATORIES) to obtain a cell suspension of 5×10^6 cells/mL. After incubating at 37° C. for 30 minutes, the cells were washed twice with the Ca assay buffer and suspended in the same buffer to obtain a cell suspension of 1×10^6 cells/60 μL. 60 μL of the cell suspension was aliquoted to each well of a 96 well UV microplate (manufactured by Corning Co.) to give a cell plate.
# The test compound was diluted with the Ca assay buffer to five times the final concentration and then 80 μL of the diluted compound was applied to each well of a 96 well round bottomed microplate (manufactured by Corning Co.) to give a sample plate. 80 μL of the Ca assay buffer containing 7.5 mM calcium chloride (i.e., ligand solution) was applied to each well of a 96 well round bottomed microplate to give a ligand plate. Then, thus prepared sample plate, ligand plate, and the cell plate were placed in Functional Drug Screening System (FDSS) 4000 (manufactured by Hamamatsu Photonics K.K.) which had been preswitched on and prewarmed to 37° C. Measurements were then carried out as follows. After incubating the cell plate for 180 seconds, fluorescence intensity was measured every two seconds (excitation wavelength; 340 nm and 380 nm, measurement wavelength; 500 nm). After the measurement for 40 seconds, 20 μL of the test compound solution from the sample plate was added to the cell plate, followed by continuous measurement for 160 seconds. Then, 20 μL of the ligand solution from the ligand plate was added to the cell plate, followed by continuous measurement for 100 seconds.
# Amount of change in intracellular Ca concentration is indicated as a peak height of the ratio of the fluorescence intensity with excitation of 340 nm and 380 nm (i.e., fluorescence intensity with excitation at 340 nm/fluorescence intensity with excitation at 380 nm) that is obtained from the difference between the maximum ratio after adding the ligand solution and the ratio before adding the ligand solution. Further, when the peak height obtained from the Ca assay buffer containing no test compound has inhibition ratio of 0% while the peak height obtained from the Ca assay buffer containing no calcium chloride as a ligand solution has inhibition ratio of 100%, inhibition ratio for each test compound (i.e., CaSR antagonist activity) was calculated.
row,Compound,IC50
1,"CN(C[C@H](O)CNC(C)(C)CC1Cc2ccccc2C1)S(=O)(=O)c1cc(F)c(-c2cccc(CCC(=O)O)c2)cc1F [Exp. 3-180, (R)-3-(4′-(N-(3-(1-(2,3-dihydro-1H-inden-2-yl)-2-methylpropan-2-ylamino)-2-hydroxypropyl)-N-methylsulfamoyl)-2′,5′-difluorobiphenyl-3-yl)propionic acid]",≤ 300 nM
2,"CN(C[C@H](O)CNC(C)(C)Cc1ccc2ccccc2c1)S(=O)(=O)c1ccc(-c2cc3c(c(C(=O)O)c2)OCC3)cc1 [Exp. 3-36, (R)-5-(4-(N-(2-hydroxy-3-(2-methyl-1-(naphthalen-2-yl)propan-2-ylamino)propyl)-N-methylsulfamoyl)phenyl)-2,3-dihydrobenzofuran-7-carboxylic acid]",1000 to 3000 nM
3,"CN(C[C@H](O)CNC(C)(C)Cc1ccc2ccccc2c1)S(=O)(=O)c1ccc(-c2ccccc2C(=O)O)cc1 [Exp. 3-29, (R)-4′-(N-(2-hydroxy-3-(2-methyl-1-(naphthalen-2-yl)propan-2-ylamino)propyl)-N-methylsulfamoyl)biphenyl-2-carboxylic acid]",300 to 1000 nM
4,"Cc1cc(-c2cccc(S(=O)(=O)N(C)C[C@H](O)CNC(C)(C)Cc3ccc4ccccc4c3)c2)ccc1C(=O)O [Exp. 3-8, (R)-3′-(N-(2-hydroxy-3-(2-methyl-1-(naphthalen-2-yl)propan-2-ylamino)propyl)-N-methylsulfamoyl)-3-methylbiphenyl-4-carboxylic acid]",≤ 300 nM
5,"CCc1cc(-c2ccc(CCC(=O)O)cc2)ccc1S(=O)(=O)N(C)C[C@H](O)CNC(C)(C)CCCc1cccc(F)c1 [Exp. 9-90, (R)-3-(3′-ethyl-4′-(N-(3-(5-(3-fluorophenyl)-2-methylpentan-2-ylamino)-2-hydroxypropyl)-N-methylsulfamoyl)biphenyl-4-yl)propionic acid]",≤ 300 nM
6,"Cc1ccc(-c2cccc(S(=O)(=O)N(C)C[C@H](O)CNC(C)(C)Cc3ccc4ccccc4c3)c2)cc1C(=O)O [Exp. 3-7, (R)-3′-(N-(2-hydroxy-3-(2-methyl-1-(naphthalen-2-yl)propan-2-ylamino)propyl)-N-methylsulfamoyl)-4-methylbiphenyl-3-carboxylic acid]",300 to 1000 nM
7,"CN(C[C@H](O)CNC(C)(C)Cc1ccc2ccccc2c1)S(=O)(=O)Cc1ccc(-c2ccc(CCC(=O)O)cc2)cc1 [Exp. 3-90, (R)-3-(4′-((N-(2-hydroxy-3-(2-methyl-1-(naphthalen-2-yl)propan-2-ylamino)propyl)-N-methylsulfamoyl)methyl)biphenyl-4-yl)propionic acid]",1000 to 3000 nM
8,"CN(C[C@H](O)CNC(C)(C)CC1Cc2ccccc2C1)S(=O)(=O)c1cccc(-c2ccc(C(=O)O)cc2)c1 [Exp. 3-50, (R)-3′-(N-(3-(1-(2,3-dihydro-1H-inden-2-yl)-2-methylpropan-2-ylamino)-2-hydroxypropyl)-N-methylsulfamoyl)biphenyl-4-carboxylic acid]",≤ 300 nM
9,"CN(C[C@H](O)CNC(C)(C)Cc1ccc2ccccc2c1)S(=O)(=O)Cc1ccccc1-c1cccc(C=CC(=O)O)c1 [Exp. 3-84, (R)-3-(2′-((N-(2-hydroxy-3-(2-methyl-1-(naphthalen-2-yl)propan-2-ylamino)propyl)-N-methylsulfamoyl)methyl)biphenyl-3-yl)acrylic acid]",1000 to 3000 nM
10,"COc1ccc(-c2cc(S(=O)(=O)N(C)C[C@H](O)CNC(C)(C)CC3Cc4ccccc4C3)sc2Cl)cc1CCC(=O)O [Exp. 5-29, (R)-3-(5-(2-chloro-5-(N-(3-(1-(2,3-dihydro-1H-inden-2-yl)-2-methylpropan-2-ylamino)-2-hydroxypropyl)-N-methylsulfamoyl)thiophen-3-yl)-2-methoxyphenyl)propionic acid]",≤ 300 nM
11,"CN(C[C@H](O)CNC(C)(C)CC1Cc2ccccc2C1)S(=O)(=O)c1cccc(-c2ccc(OCC(=O)O)c(Cl)c2)c1 [Exp. 3-223, (R)-2-(3-chloro-3′-(N-(3-(1-(2,3-dihydro-1H-inden-2-yl)-2-methylpropan-2-ylamino)-2-hydroxypropyl)-N-methylsulfamoyl)biphenyl-4-yloxy)acetic acid]",≤ 300 nM
